What was measured:
Carbonic anhydrase 1 = Carbonic anhydrase 1 (Homo sapiens, UniProt P00915); test: Inhibition of recombinant human carbonic anhydrase 1 preincubated with enzyme for 15 mins by phenol red dye based stopped flow CO2 hydration assay
Carbonic anhydrase 2 = Carbonic anhydrase 2 (Homo sapiens, UniProt P00918); test: Inhibition of recombinant human carbonic anhydrase 2 preincubated with enzyme for 15 mins by phenol red dye based stopped flow CO2 hydration assay
Carbonic anhydrase 9 = Carbonic anhydrase 9 (Homo sapiens, UniProt Q16790)
Description: Inhibition of recombinant human carbonic anhydrase 9 preincubated with enzyme for 15 mins by phenol red dye based stopped flow CO2 hydration assay

Carbonic anhydrase 12 = Carbonic anhydrase 12 (Homo sapiens, UniProt O43570); test: Inhibition of recombinant human carbonic anhydrase 12 preincubated with enzyme for 15 mins by phenol red dye based stopped flow CO2 hydration assay
Chain of Carbonic anhydrase 12 (O43570 whole entry): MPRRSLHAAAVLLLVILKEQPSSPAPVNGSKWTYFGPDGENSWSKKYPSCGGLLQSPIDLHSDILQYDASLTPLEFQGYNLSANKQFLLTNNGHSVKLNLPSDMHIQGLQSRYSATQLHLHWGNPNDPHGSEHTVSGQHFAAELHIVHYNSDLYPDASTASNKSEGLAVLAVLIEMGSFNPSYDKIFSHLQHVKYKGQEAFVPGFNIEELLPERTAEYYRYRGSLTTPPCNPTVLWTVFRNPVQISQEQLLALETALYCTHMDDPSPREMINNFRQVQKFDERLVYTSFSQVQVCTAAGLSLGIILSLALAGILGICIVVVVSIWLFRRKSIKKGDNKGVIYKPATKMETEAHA

Homo sapiens [1] = species on record: Homo sapiens; test: (§1) Selectivity index, ratio of Ki for recombinant human carbonic anhydrase 1 preincubated with enzyme for 15 mins by phenol red dye based stopped flow CO2 hydration assay to Ki for recombinant human carbonic anhydrase 9 preincubated with enzyme for 15 mins by phenol red dye based stopped flow CO2 hydration assay
Homo sapiens [2] = species on record: Homo sapiens; test: as §1, with “anhydrase 2” for “anhydrase 1”
Homo sapiens [3] = species on record: Homo sapiens; test: as §1, with “12” for “9”
Homo sapiens [4] = species on record: Homo sapiens; test: as §1, with “anhydrase 2” for “anhydrase 1”, “anhydrase 12” for “anhydrase 9”
MCF7 = test: Antiproliferative activity against human MCF7 cells assessed as reduction in cell viability incubated for 48 hrs by SRB assay; assay type: functional, cell-based; settings: MCF7, 48 h
MDA-MB-231 = test: cells; settings: Homo sapiens, MDA-MB-231, 48 h

Chain of Carbonic anhydrase 1 (P00915 whole entry): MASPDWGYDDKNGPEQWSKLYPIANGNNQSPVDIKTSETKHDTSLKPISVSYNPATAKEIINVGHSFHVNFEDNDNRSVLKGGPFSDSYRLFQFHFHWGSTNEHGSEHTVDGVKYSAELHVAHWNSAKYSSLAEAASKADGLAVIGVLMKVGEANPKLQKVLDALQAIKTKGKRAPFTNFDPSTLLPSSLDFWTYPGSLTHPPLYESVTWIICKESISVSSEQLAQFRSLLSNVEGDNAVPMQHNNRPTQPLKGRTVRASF

Ki (Carbonic anhydrase 1)	Ki (Carbonic anhydrase 2)	Ki (Carbonic anhydrase 9)	Ki (Carbonic anhydrase 12)	Ratio Ki (Homo sapiens [1])	Ratio Ki (Homo sapiens [2])	Ratio Ki (Homo sapiens [3])	Ratio Ki (Homo sapiens [4])	IC50 (MCF7)	IC50 (MDA-MB-231)	SMILES
33.2 µM	37 µM	0.79 µM	2.3 µM	–	–	–	–	–	–	O=C(Nc1cccc(C(=O)O)c1)Nc1cc2cc(Br)ccc2o1
> 100 µM	7.9 µM	1.6 µM	3.4 µM	> 63	5	> 29	2	–	–	Cc1c(NC(=O)Nc2ccccc2C(=O)O)oc2ccccc12
20.5 µM	7.2 µM	0.56 µM	1.6 µM	–	–	–	–	–	–	O=C(Nc1ccc(C(=O)O)cc1)Nc1cc2cc(Br)ccc2o1
32.8 µM	10.1 µM	0.91 µM	2.2 µM	–	–	–	–	–	–	Cc1c(NC(=O)Nc2cccc(C(=O)O)c2)oc2ccccc12
4.5 µM	3.1 µM	5.1 µM	0.88 µM	–	–	5	4	–	–	Cc1c(NC(=O)Nc2ccc(C(=O)O)cc2)oc2ccccc12
–	–	–	–	–	–	–	–	1.43 µM	2.36 µM	COc1cccc2c1C(=O)c1c(O)c3c(c(O)c1C2=O)C[C@@](O)(C(=O)CO)C[C@@H]3O[C@H]1C[C@H](N)[C@H](O)[C@H](C)O1 [DOXORUBICIN]
> 100 µM	67.1 µM	19 µM	10.1 µM	5	4	10	7	–	–	O=C(O)CNC(=O)c1ccc(NC(=O)Nc2cc3cc(Br)ccc3o2)cc1
64.7 µM	25.8 µM	35.7 µM	2.7 µM	2	–	24	10	–	–	Cc1c(NC(=O)Nc2ccc(C(=O)NCC(=O)O)cc2)oc2ccccc12
> 100 µM	4.1 µM	5.1 µM	8 µM	20	–	13	–	–	–	O=C(Nc1cc2cc(Br)ccc2o1)Nc1ccccc1C(=O)O

— ChEMBL document CHEMBL4613318, “Benzofuran-Based Carboxylic Acids as Carbonic Anhydrase Inhibitors and Antiproliferative Agents against Breast Cancer” (ACS Med Chem Lett, 2020)
